# Data taken from US10662218B2, “Analogs of celastrol” (ERX Pharmaceuticals, Inc., priority 2015, dated 2020).
# Several values for one entry are separate records, joined by “and”; a condition that tells them apart may be missing. Identical values can stand only once. Like-named read-outs stand apart in the source and are kept apart here.
# How the values were obtained:
# [1] = test system: C57BL/6 Diet Induced Obese (DIO) mice; test: Oral (P.O.) administration study in DIO mice: in vivo activity, body weights; parameters: species or system mouse; conditions: for change in vivo at 2 mg/kg: Mus musculus, po, read-out: Body weight, %-Diff; for Individual Body Weight: individual male animals
# From the text: The purpose of this study was to assess test articles in the Diet Induced Obese (DIO) mouse.
# Male C57BL/6 Diet Induced Obese (DIO) mice were received from Taconic. Animals were acclimated to housing conditions for at least 1 week prior to vehicle acclimation dosing. Animals were acclimated to oral gavage dosing with vehicle once daily for Days 11 through 14 of the predose phase.
# At initiation of dosing, animals were 21 to 22 weeks old, and their body weights ranged from 29.8 to 40.1 g.
# Dose formulations were administered by oral gavage once daily for 10 days at a dose volume of 2 mL/kg. Doses were based on the most recently recorded scheduled body weight.
# Body weights were recorded daily on Days 11 through 14 of the predose phase. Body weights were collected for all animals daily during the dosing phase prior to dosing.
# Descriptive statistics (n, mean, standard error of the mean, standard deviation) were completed. Additionally, one-way analysis of variance followed by Dunnett's post-hoc test were performed on body weight (cumulative body weight change), glucose (glucose percent change), and food consumption (cumulative food consumption). Area under the curve (for body weight, cumulative body weight change, daily body weight change, and food consumption) was computed for treatment groups. An appropriate comparison test, such as one-way analysis of variance and Dunnett's, was performed on the group means for the area under the curve computations. Any additional statistical analysis and interpretation of the results were the responsibility of the sponsor.
# [2] = test system: C57BL/6 Diet Induced Obese (DIO) mice; test: Oral (P.O.) administration study in DIO mice: animal fate (mortality) and clinical observations; conditions: 2 mg/kg
# Protocol: Male C57BL/6 DIO mice were assigned to 12 groups, and doses of 2 mg/kg Celastrol (ERX1000-4), ERX1006, ERX1007, ERX1037, ERX1060, ERX1077, ERX1107, ERX1149, ERX1168, ERX1177, and Pristimerin were administered to Groups 2 through 12, respectively. Animals were dosed via oral gavage once daily for 10 days at a volume of 2 mL/kg. The vehicle control article was 1% methyl cellulose (400 cps) in citric acid and phosphate buffer.
# Parameters assessed included mortality, clinical observations, body weights and food consumption and blood glucose evaluations.
# All animals were anesthetized via carbon dioxide, sacrificed, and discarded without further evaluation on Day 11.
# [3] = DIO mice, male, 2 mg/kg, phase DSNG, Day 7
# [4] = DIO mice, male, 2 mg/kg, phase DSNG, Day 8
# [5] = DIO mice, male, 2 mg/kg, phase DSNG, Day 9
# [6] = DIO mice, male, 2 mg/kg, phase DSNG, Day 10
# [7] = DIO mice, male, 2 mg/kg, phase DSNG, Day 11
# [8] = Day 1, DSNG phase, 2 mg/kg, male, N=5
# [9] = Day 2, DSNG phase, 2 mg/kg, male, N=5
# [10] = Day 3, DSNG phase, 2 mg/kg, male, N=5
# [11] = Day 4, DSNG phase, 2 mg/kg, male, N=5
# [12] = Day 5, DSNG phase, 2 mg/kg, male, N=5
# [13] = Day 6, DSNG phase, 2 mg/kg, male, N=5
structure (smiles),measurement,setting,value
"COC(=O)[C@]1(C)CC[C@]2(C)CC[C@]3(C)C4=CC=C5C(=CC(=O)C(O)=C5C)[C@]4(C)CC[C@@]3(C)[C@@H]2C1 [Pristimerin, reference compound]","Body weight, Mean",[1]; [3],33.5 g
same,"Body weight, Mean",[1]; [4],33.1 g
same,"Body weight, Mean",[1]; [5],32.9 g
same,"Body weight, Mean",[1]; [6],33.2 g
same,"Body weight, Mean",[1]; [7],33.9 g
same,"Body weight, Mean",[1]; [8],34.2 g
same,"Body weight, Mean",[1]; [9],34.0 g
same,"Body weight, Mean",[1]; [10],33.7 g
same,"Body weight, Mean",[1]; [11],33.3 g
same,"Body weight, Mean",[1]; [12],33.3 g
same,"Body weight, Mean",[1]; [13],33.4 g
same,change in vivo at 2 mg/kg,[1]; 24 h,0%
same,change in vivo at 2 mg/kg,[1]; 48 h,-1%
same,change in vivo at 2 mg/kg,[1]; 72 h,-1%
same,change in vivo at 2 mg/kg,[1]; 96 h,0%
same,change in vivo at 2 mg/kg,[1]; 120 h,-1%
same,change in vivo at 2 mg/kg,[1]; 144 h,0%
same,change in vivo at 2 mg/kg,[1]; 168 h,0%
same,change in vivo at 2 mg/kg,[1]; 192 h,-2%
same,change in vivo at 2 mg/kg,[1]; 216 h,-1%
same,change in vivo at 2 mg/kg,[1]; 240 h,-1%
same,change in vivo at 2 mg/kg,[1]; 264 h,-1%
same,"Individual Body Weight, PRED 11","[1]; individual male DIO mouse of the 2 mg/kg group, pre-dose phase day 11 (baseline)",42.4 g and 35.2 g and 31.7 g and 38.2 g and 33.9 g
same,"Individual Body Weight, PRED 12","[1]; individual male DIO mouse of the 2 mg/kg group, pre-dose phase day 12 (baseline)",41.2 g and 34.5 g and 31.0 g and 37.5 g and 32.5 g
same,"Individual Body Weight, PRED 13","[1]; individual male DIO mouse of the 2 mg/kg group, pre-dose phase day 13 (baseline)",41.3 g and 33.4 g and 31.4 g and 37.3 g and 32.9 g
same,"Individual Body Weight, PRED 14","[1]; individual male DIO mouse of the 2 mg/kg group, pre-dose phase day 14 (baseline)",41.9 g and 35.0 g and 31.6 g and 37.6 g and 33.1 g
same,"Individual Body Weight, DSNG 1","[1]; individual male DIO mouse, 2 mg/kg, dosing phase day 1, 2 mg/kg",40.0 g and 33.3 g and 29.8 g and 35.5 g and 32.3 g
same,"Individual Body Weight, DSNG 2","[1]; individual male DIO mouse, 2 mg/kg, dosing phase day 2, 2 mg/kg",39.4 g and 33.1 g and 30.2 g and 35.4 g and 32.1 g
same,Individual Animal Fate: Fate Status,"[2]; individual male DIO mouse, phase of fate Dosing, phase week 2, phase day 11",Scheduled Sacrifice
CC(=O)N(C)C[C@]1(C)CC[C@]2(C)CC[C@]3(C)C4=CC=C5C(=CC(=O)C(O)=C5C)[C@]4(C)CC[C@@]3(C)[C@@H]2C1 [ERX1149],Individual Body Weight,"[1]; 2 mg/kg, Phase Day DSNG 1",33.3 g and 35.8 g and 39.7 g and 31.5 g and 34.3 g
same,Individual Body Weight,"[1]; 2 mg/kg, Phase Day DSNG 2",32.2 g and 34.8 g and 39.9 g and 31.7 g and 34.1 g
same,Individual Body Weight,"[1]; 2 mg/kg, Phase Day PRED 11 (pre-dose baseline)",33.3 g and 38.3 g and 41.4 g and 33.7 g and 35.6 g
same,Individual Body Weight,"[1]; 2 mg/kg, Phase Day PRED 12 (pre-dose baseline)",33.3 g and 37.3 g and 41.5 g and 33.4 g and 36.3 g
same,Individual Body Weight,"[1]; 2 mg/kg, Phase Day PRED 13 (pre-dose baseline)",33.1 g and 36.8 g and 41.4 g and 32.3 g and 35.2 g
same,Individual Body Weight,"[1]; 2 mg/kg, Phase Day PRED 14 (pre-dose baseline)",33.5 g and 36.1 g and 41.0 g and 32.5 g and 36.5 g
same,"Body weight, Mean",[1]; [3],32.8 g
same,"Body weight, Mean",[1]; [4],33.3 g
same,"Body weight, Mean",[1]; [5],33.1 g
same,"Body weight, Mean",[1]; [6],33.5 g
same,"Body weight, Mean",[1]; [7],33.6 g
same,"Body weight, Mean",[1]; [8],34.9 g
same,"Body weight, Mean",[1]; [9],34.5 g
same,"Body weight, Mean",[1]; [10],34.1 g
same,"Body weight, Mean",[1]; [11],34.0 g
same,"Body weight, Mean",[1]; [12],33.5 g
same,"Body weight, Mean",[1]; [13],33.1 g
same,change in vivo at 2 mg/kg,"[1]; 24 h, Day 1, DSNG phase, 2 mg/kg, male, difference of group mean",2%
same,change in vivo at 2 mg/kg,"[1]; 48 h, Day 2, DSNG phase, 2 mg/kg, male, difference of group mean",0%
same,change in vivo at 2 mg/kg,"[1]; 72 h, Day 3, DSNG phase, 2 mg/kg, male, difference of group mean",1%
same,change in vivo at 2 mg/kg,"[1]; 96 h, Day 4, DSNG phase, 2 mg/kg, male, difference of group mean",2%
same,change in vivo at 2 mg/kg,"[1]; 120 h, Day 5, DSNG phase, 2 mg/kg, male, difference of group mean",-1%
same,change in vivo at 2 mg/kg,"[1]; 144 h, Day 6, DSNG phase, 2 mg/kg, male, difference of group mean",-1%
same,change in vivo at 2 mg/kg,"[1]; 168 h, DIO mice, male, 2 mg/kg, phase DSNG, Day 7, difference of group mean from vehicle group 1",-2%
same,change in vivo at 2 mg/kg,"[1]; 192 h, DIO mice, male, 2 mg/kg, phase DSNG, Day 8, difference of group mean from vehicle group 1",-1%
same,change in vivo at 2 mg/kg,"[1]; 216 h, DIO mice, male, 2 mg/kg, phase DSNG, Day 9, difference of group mean from vehicle group 1",0%
same,change in vivo at 2 mg/kg,"[1]; 240 h, DIO mice, male, 2 mg/kg, phase DSNG, Day 10, difference of group mean from vehicle group 1",0%
same,change in vivo at 2 mg/kg,"[1]; 264 h, DIO mice, male, 2 mg/kg, phase DSNG, Day 11, difference of group mean from vehicle group 1",-1%
same,Individual Animal Fate: Fate Status,"[2]; mouse, in vivo",Scheduled Sacrifice
